Laboratory results published in the supplement of paper PMC8149375.

Columns and labels:
Settings in all cases: treatment: drug + dasatinib (fixed dose, not stated); 5 days
769-P [1] = assay: GI50 of drug in presence of dasatinib; higher = less potent
Protocol: (§1)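 Primary HTS combination arm: 8 RCC cell lines treated with 8 doses (up to 10 uM) of each library drug plus a fixed dose of dasatinib (dose not stated) for 5 days; viability read by CellTiter-Glo and normalised to DMSO. GI50 was fitted with XLfit, AUC is the area under the dose-response curve, and minimum viability is the lowest fraction of DMSO viability across doses.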

786-O [2] = assay: as above
Protocol: as §1

A498 [3] = assay: as above
Protocol: as §1

ACHN [4] = assay: as above
Protocol: as §1

CAKI-1 [5] = assay: as above
Protocol: as §1

SN12C [6] = assay: as above
Protocol: as §1

TK-10 [7] = assay: as above
Protocol: as §1

UO-31 [8] = assay: as above
Protocol: as §1

769-P [9] = assay: minimum viability across doses, drug + dasatinib, relative to DMSO (fraction); higher = less growth inhibition
Protocol: as §1

786-O [10] = assay: as above
Protocol: as §1

A498 [11] = assay: as above
Protocol: as §1

ACHN [12] = assay: as above
Protocol: as §1

CAKI-1 [13] = assay: as above
Protocol: as §1

SN12C [14] = assay: as above
Protocol: as §1

TK-10 [15] = assay: as above
Protocol: as §1

UO-31 [16] = assay: as above
Protocol: as §1

769-P [17] = assay: AUC of dose-response viability curve, drug + dasatinib, normalised to DMSO (arbitrary (AUC of normalised viability)); higher = less growth inhibition
Protocol: as §1

786-O [18] = assay: as above
Protocol: as §1

A498 [19] = assay: as above
Protocol: as §1

ACHN [20] = assay: as above
Protocol: as §1

CAKI-1 [21] = assay: as above
Protocol: as §1

SN12C [22] = assay: as above
Protocol: as §1

TK-10 [23] = assay: as above
Protocol: as §1

UO-31 [24] = assay: as above
Protocol: as §1

Row | Structure (SMILES) | GI50 of drug (769-P [1]) [µM] | GI50 of drug (786-O [2]) [µM] | GI50 of drug (A498 [3]) [µM] | GI50 of drug (ACHN [4]) [µM] | GI50 of drug (CAKI-1 [5]) [µM] | GI50 of drug (SN12C [6]) [µM] | GI50 of drug (TK-10 [7]) [µM] | GI50 of drug (UO-31 [8]) [µM] | minimum viability across doses (769-P [9]) | minimum viability across doses (786-O [10]) | minimum viability across doses (A498 [11]) | minimum viability across doses (ACHN [12]) | minimum viability across doses (CAKI-1 [13]) | minimum viability across doses (SN12C [14]) | minimum viability across doses (TK-10 [15]) | minimum viability across doses (UO-31 [16]) | AUC of dose-response viability curve (769-P [17]) | AUC of dose-response viability curve (786-O [18]) | AUC of dose-response viability curve (A498 [19]) | AUC of dose-response viability curve (ACHN [20]) | AUC of dose-response viability curve (CAKI-1 [21]) | AUC of dose-response viability curve (SN12C [22]) | AUC of dose-response viability curve (TK-10 [23]) | AUC of dose-response viability curve (UO-31 [24])
1 | COc1ccc(COc2cc3oc(=O)c4cc(C(C)O)ccc4c3cc2OC)cc1 (stereo unspecified) [Palomid 529] + Cc1nc(Nc2ncc(C(=O)Nc3c(C)cccc3Cl)s2)cc(N2CCN(CCO)CC2)n1 [dasatinib] | 6.22 | 2.96 | > 10 | > 10 | 5.94 | > 10 | > 10 | > 10 | 0.415 | 0.324 | 0.857 | 0.539 | 0.414 | 0.707 | 0.635 | 1.17 | 2.29 | 2.05 | 3.49 | 2.1 | 2.25 | 2.53 | 2.53 | 4.61
2 | Cc1ccc(Nc2nccc(N(C)c3ccc4c(C)n(C)nc4c3)n2)cc1S(N)(=O)=O.Cl [Pazopanib HCl] + Cc1nc(Nc2ncc(C(=O)Nc3c(C)cccc3Cl)s2)cc(N2CCN(CCO)CC2)n1 [dasatinib] | 8.32 | < 0.003 | > 10 | 1.34 | 0.925 | 3.1 | 8.59 | 8.02 | 0.123 | 0.277 | 0.522 | 0.175 | 0.0765 | 0.327 | 0.469 | 0.248 | 2.22 | 2.29 | 3.16 | 2.13 | 1.86 | 2.37 | 2.54 | 3.27
3 | CCOc1cc2ncc(C#N)c(Nc3ccc(F)c(Cl)c3)c2cc1NC(=O)/C=C/CN(C)C [Pelitinib (EKB-569)] + Cc1nc(Nc2ncc(C(=O)Nc3c(C)cccc3Cl)s2)cc(N2CCN(CCO)CC2)n1 [dasatinib] | 0.0484 | 0.404 | 1.08 | 0.00721 | 0.0606 | 0.864 | 0.0611 | 0.216 | 0.0321 | 0.00483 | 0.0177 | 0.00232 | 0.0303 | 0.00631 | 0.00649 | 0.0179 | 1.38 | 1.79 | 2.55 | 0.845 | 1.17 | 1.78 | 1.43 | 1.8
4 | Cl.N=C(N)NC(=N)NCCc1ccccc1 [Phenformin hydrochloride] + Cc1nc(Nc2ncc(C(=O)Nc3c(C)cccc3Cl)s2)cc(N2CCN(CCO)CC2)n1 [dasatinib] | > 10 | 1.06 | > 10 | 3.14 | > 10 | 4.33 | 5.02 | 4.39 | 0.623 | 0.115 | 0.676 | 0.357 | 0.578 | 0.114 | 0.315 | 0.194 | 2.41 | 1.84 | 3.25 | 2.08 | 2.28 | 2.36 | 2.35 | 2.83
5 | Br.Cc1ccc(C(=O)Cn2c3c(sc2=N)CCCC3)cc1 [Pifithrin-α] + Cc1nc(Nc2ncc(C(=O)Nc3c(C)cccc3Cl)s2)cc(N2CCN(CCO)CC2)n1 [dasatinib] | > 10 | > 10 | > 10 | 3.78 | > 10 | > 10 | > 10 | > 10 | 0.696 | 0.535 | 0.901 | 0.391 | 0.529 | 0.656 | 0.59 | 0.998 | 2.63 | 2.26 | 3.57 | 2.03 | 2.13 | 2.53 | 2.3 | 4.02
6 | Nc1cccc2c1C(=O)N(C1CCC(=O)NC1=O)C2=O (stereo unspecified) [Pomalidomide] + Cc1nc(Nc2ncc(C(=O)Nc3c(C)cccc3Cl)s2)cc(N2CCN(CCO)CC2)n1 [dasatinib] | > 10 | > 10 | > 10 | > 10 | > 10 | > 10 | > 10 | > 10 | 0.65 | 0.617 | 0.857 | 0.542 | 0.642 | 0.711 | 0.639 | 0.868 | 2.65 | 2.67 | 3.27 | 2.15 | 2.38 | 2.58 | 2.5 | 3.3
7 | O=c1c(O)c(-c2ccc(O)c(O)c2)oc2cc(O)cc(O)c12 [Quercetin (Sophoretin)] + Cc1nc(Nc2ncc(C(=O)Nc3c(C)cccc3Cl)s2)cc(N2CCN(CCO)CC2)n1 [dasatinib] | > 10 | > 10 | > 10 | > 10 | > 10 | > 10 | > 10 | > 10 | 0.618 | 0.45 | 0.879 | 0.56 | 0.576 | 0.692 | 0.67 | 0.844 | 2.42 | 1.89 | 3.26 | 2.14 | 2.35 | 2.52 | 2.47 | 3.51
8 | CC(C)(C)c1cc(NC(=O)Nc2ccc(-c3cn4c(n3)sc3cc(OCCN5CCOCC5)ccc34)cc2)no1 [Quizartinib (AC220)] + Cc1nc(Nc2ncc(C(=O)Nc3c(C)cccc3Cl)s2)cc(N2CCN(CCO)CC2)n1 [dasatinib] | 2.37 | 1.56 | 6.27 | 2.02 | 1.08 | > 10 | > 10 | > 10 | 0.432 | 0.256 | 0.115 | 0.315 | 0.378 | 0.627 | 0.622 | 0.859 | 2.19 | 2.25 | 2.87 | 1.89 | 2.02 | 2.29 | 2.54 | 3.94
9 | COc1cc(Nc2ncc(F)c(Nc3ccc4c(n3)NC(=O)C(C)(C)O4)n2)cc(OC)c1OC [R406(free base)] + Cc1nc(Nc2ncc(C(=O)Nc3c(C)cccc3Cl)s2)cc(N2CCN(CCO)CC2)n1 [dasatinib] | 1.53 | 0.571 | > 10 | 0.032 | 0.231 | 1.39 | 1.38 | 1.61 | 0.13 | 0.168 | 0.591 | 0.0361 | 0.0291 | 0.189 | 0.348 | 0.0124 | 2.08 | 1.77 | 3.18 | 1.11 | 1.54 | 2.05 | 2.19 | 3.16
10 | COc1cc(Nc2ncc(F)c(Nc3ccc4c(n3)NC(=O)C(C)(C)O4)n2)cc(OC)c1OC.O=S(=O)(O)c1ccccc1 [R406] + Cc1nc(Nc2ncc(C(=O)Nc3c(C)cccc3Cl)s2)cc(N2CCN(CCO)CC2)n1 [dasatinib] | 2.2 | 0.724 | > 10 | 0.173 | 0.24 | 0.908 | 1.58 | 1.57 | 0.139 | 0.232 | 0.675 | 0.0817 | 0.0338 | 0.235 | 0.347 | 0.0103 | 2.23 | 1.91 | 3.28 | 1.71 | 1.53 | 2.04 | 2.22 | 2.12
11 | COc1cc(Nc2ncc(F)c(Nc3ccc4c(n3)N(COP(=O)(O)O)C(=O)C(C)(C)O4)n2)cc(OC)c1OC [R788 (Fostamatinib)] + Cc1nc(Nc2ncc(C(=O)Nc3c(C)cccc3Cl)s2)cc(N2CCN(CCO)CC2)n1 [dasatinib] | 0.993 | 0.366 | > 10 | 0.183 | 0.195 | 0.983 | 0.963 | 2.4 | 0.0614 | 0.199 | 0.61 | 0.04 | 0.00427 | 0.179 | 0.254 | 0.0153 | 2 | 1.88 | 3.69 | 1.45 | 1.47 | 2.02 | 2.16 | 3.58
12 | FC(F)(F)c1ccc(Nc2nc3cc(Oc4ccnc(-c5ncc(C(F)(F)F)[nH]5)c4)ccc3[nH]2)cc1 [Raf265 derivative] + Cc1nc(Nc2ncc(C(=O)Nc3c(C)cccc3Cl)s2)cc(N2CCN(CCO)CC2)n1 [dasatinib] | 5.01 | 5.02 | > 10 | 3.3 | 3.55 | > 10 | 9.07 | > 10 | 0.318 | 0.241 | 0.633 | 0.137 | 0.173 | 0.484 | 0.476 | 0.551 | 2.37 | 2.47 | 3.35 | 2.21 | 2.35 | 2.47 | 2.73 | 3.44
13 | CC[C@H](CO)Nc1nc(NCc2ccccc2)c2ncn(C(C)C)c2n1 [Roscovitine (Seliciclib, CYC202)] + Cc1nc(Nc2ncc(C(=O)Nc3c(C)cccc3Cl)s2)cc(N2CCN(CCO)CC2)n1 [dasatinib] | > 10 | 4.9 | > 10 | 3.63 | > 10 | > 10 | > 10 | 9.07 | 0.595 | 0.259 | 0.847 | 0.266 | 0.514 | 0.669 | 0.675 | 0.272 | 2.52 | 2.32 | 3.29 | 2.15 | 2.54 | 2.52 | 2.74 | 3.04
14 | CN1CCN(CCOc2cc(OC3CCOCC3)c3c(Nc4c(Cl)ccc5c4OCO5)ncnc3c2)CC1 [Saracatinib (AZD0530)] + Cc1nc(Nc2ncc(C(=O)Nc3c(C)cccc3Cl)s2)cc(N2CCN(CCO)CC2)n1 [dasatinib] | 0.311 | 2 | > 10 | 0.366 | 0.878 | > 10 | 0.709 | 1.09 | 0.0614 | 0.333 | 0.616 | 0.192 | 0.14 | 0.536 | 0.102 | 0.158 | 1.68 | 2.28 | 3.19 | 1.79 | 2.01 | 2.39 | 2.19 | 2.51
